Source: patent publication US20220056037A1 (SPV THERAPEUTICS INC., priority 2018, published 2022)
Like-named read-outs stand apart in the source and are kept apart here.

How the values were obtained:
Experiment in all cases: Inhibition assay, microfluidic LabChip (Nanosyn)
Format in all cases: biochemical
[1] = target: T1, CDK2-CYCLINA (Homo sapiens, UniProt P24941);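 note: values are IC50 from a concentration-response series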
T1 construct: purchased Millipore
Experimental: (§1) The reaction was terminated by the addition of EDTA. The plates were analyzed using a Caliper LabChip 3000.
(§2) Additional inhibition assays were performed as described above.

[2] = target: CDK7 CyclinH (Homo sapiens, UniProt P50613);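 note: values are IC50 from a concentration-response series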
Chain of CDK7 CyclinH (P50613 whole entry): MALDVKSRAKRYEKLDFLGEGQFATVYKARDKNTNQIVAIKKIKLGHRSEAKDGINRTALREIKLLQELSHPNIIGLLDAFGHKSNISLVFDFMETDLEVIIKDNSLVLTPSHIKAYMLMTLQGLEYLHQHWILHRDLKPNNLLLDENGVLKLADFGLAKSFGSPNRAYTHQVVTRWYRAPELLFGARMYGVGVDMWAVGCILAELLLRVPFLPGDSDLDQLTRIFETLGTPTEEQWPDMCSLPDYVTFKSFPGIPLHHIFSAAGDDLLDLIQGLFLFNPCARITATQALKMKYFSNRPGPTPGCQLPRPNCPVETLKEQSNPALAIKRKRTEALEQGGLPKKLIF
Chain of CDK7 CyclinH (P51946 whole entry partner): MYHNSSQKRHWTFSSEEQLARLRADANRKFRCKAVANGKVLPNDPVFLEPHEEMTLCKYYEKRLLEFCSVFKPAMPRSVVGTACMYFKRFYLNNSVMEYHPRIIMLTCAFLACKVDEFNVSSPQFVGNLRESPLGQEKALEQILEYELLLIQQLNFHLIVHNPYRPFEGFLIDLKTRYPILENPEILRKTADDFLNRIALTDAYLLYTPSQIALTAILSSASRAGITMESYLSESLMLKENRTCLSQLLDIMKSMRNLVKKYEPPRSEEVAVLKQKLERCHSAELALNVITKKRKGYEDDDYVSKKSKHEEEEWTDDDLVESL
Chain of CDK7 CyclinH (P51948 whole entry partner): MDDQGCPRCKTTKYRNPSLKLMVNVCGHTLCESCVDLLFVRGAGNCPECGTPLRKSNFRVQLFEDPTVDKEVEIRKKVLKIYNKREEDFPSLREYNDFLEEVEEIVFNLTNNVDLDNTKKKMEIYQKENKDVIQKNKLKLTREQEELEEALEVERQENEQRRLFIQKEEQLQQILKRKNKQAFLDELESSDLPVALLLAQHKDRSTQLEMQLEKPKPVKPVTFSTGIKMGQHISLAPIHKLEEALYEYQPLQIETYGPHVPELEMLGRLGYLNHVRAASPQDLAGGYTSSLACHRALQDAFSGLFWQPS
Experimental: as §1, §2

[3] = target: T2, CDK4-CYCLIND1 (Homo sapiens, UniProt P11802); details: read-out: CDK4 CyclinD1 IC50
T2 construct: purchased Invitrogen
T2 sequence (P11802 whole entry): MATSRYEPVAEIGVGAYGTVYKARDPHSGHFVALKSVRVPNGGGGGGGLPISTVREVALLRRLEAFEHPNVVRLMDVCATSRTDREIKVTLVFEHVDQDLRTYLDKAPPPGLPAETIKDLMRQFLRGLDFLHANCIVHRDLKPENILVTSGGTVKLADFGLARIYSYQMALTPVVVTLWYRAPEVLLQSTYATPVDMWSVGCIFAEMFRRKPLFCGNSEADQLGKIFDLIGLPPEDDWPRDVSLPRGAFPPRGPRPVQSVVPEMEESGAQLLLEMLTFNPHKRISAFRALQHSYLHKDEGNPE
T2 sequence (P24385 whole entry partner): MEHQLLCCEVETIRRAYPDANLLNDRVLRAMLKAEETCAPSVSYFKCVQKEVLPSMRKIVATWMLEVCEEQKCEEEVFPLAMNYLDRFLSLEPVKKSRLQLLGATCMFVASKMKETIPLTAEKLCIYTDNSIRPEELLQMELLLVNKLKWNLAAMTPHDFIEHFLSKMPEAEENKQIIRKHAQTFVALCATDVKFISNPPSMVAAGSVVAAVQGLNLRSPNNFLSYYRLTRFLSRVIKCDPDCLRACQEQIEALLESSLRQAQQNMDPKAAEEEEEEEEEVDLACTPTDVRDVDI
Experimental: as §1, §2

[4] = target: T3, CDK9-CYCLINT1 (Homo sapiens, UniProt P50750);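 note: values are IC50 from a concentration-response series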
T3 construct: purchased Carna
T3 sequence (P50750 whole entry): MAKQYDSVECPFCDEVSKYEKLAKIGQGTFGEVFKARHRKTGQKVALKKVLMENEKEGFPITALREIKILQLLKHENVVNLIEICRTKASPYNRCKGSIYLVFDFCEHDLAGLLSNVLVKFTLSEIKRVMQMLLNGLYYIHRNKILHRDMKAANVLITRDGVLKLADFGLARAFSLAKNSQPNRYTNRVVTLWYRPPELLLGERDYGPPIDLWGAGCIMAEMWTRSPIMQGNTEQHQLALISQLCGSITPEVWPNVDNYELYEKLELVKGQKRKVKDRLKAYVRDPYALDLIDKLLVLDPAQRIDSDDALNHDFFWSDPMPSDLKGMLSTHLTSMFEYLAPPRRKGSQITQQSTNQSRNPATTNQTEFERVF
T3 sequence (O60563 whole entry partner): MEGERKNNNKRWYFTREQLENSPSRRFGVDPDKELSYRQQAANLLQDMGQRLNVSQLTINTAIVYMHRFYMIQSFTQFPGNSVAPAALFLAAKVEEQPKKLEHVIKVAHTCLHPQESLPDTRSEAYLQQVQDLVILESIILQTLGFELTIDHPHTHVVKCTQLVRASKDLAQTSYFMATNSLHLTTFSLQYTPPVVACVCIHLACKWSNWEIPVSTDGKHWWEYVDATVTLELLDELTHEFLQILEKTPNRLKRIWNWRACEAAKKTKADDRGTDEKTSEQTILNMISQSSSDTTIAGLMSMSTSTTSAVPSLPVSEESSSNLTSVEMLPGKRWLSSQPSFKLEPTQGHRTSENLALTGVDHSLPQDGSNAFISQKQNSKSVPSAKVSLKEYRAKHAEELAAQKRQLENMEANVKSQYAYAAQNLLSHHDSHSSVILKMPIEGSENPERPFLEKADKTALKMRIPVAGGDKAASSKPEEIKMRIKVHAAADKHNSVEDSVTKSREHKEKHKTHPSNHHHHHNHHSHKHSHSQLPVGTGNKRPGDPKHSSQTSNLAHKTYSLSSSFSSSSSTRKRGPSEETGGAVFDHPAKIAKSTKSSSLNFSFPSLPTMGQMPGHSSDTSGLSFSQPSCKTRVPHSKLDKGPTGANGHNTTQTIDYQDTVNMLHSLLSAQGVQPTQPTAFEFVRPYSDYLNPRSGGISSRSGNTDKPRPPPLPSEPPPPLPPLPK
Experimental: as §1, §2

[5] = target: CDK1/B (Homo sapiens, UniProt P06493); details: Table 3a
Chain of CDK1/B (P06493 whole entry): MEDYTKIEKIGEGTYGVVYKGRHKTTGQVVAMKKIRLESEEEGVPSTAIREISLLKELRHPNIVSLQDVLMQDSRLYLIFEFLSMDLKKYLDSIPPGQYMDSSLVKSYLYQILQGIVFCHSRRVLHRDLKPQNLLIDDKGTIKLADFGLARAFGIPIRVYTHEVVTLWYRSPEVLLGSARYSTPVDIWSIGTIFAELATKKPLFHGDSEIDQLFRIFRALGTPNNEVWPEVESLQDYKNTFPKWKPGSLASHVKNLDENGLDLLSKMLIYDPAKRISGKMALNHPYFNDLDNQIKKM
Chain of CDK1/B (P14635 whole entry partner): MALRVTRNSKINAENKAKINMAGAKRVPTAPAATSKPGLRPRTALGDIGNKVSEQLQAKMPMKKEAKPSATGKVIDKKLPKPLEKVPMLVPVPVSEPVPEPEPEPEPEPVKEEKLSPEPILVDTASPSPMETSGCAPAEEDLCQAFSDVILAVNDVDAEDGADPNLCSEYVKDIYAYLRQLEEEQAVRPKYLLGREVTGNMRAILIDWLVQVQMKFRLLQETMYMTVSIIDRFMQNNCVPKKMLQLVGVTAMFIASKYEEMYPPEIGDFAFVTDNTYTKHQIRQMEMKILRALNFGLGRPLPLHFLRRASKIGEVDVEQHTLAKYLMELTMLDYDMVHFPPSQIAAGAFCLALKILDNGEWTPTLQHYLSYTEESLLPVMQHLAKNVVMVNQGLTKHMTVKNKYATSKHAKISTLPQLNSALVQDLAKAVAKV
Experimental: as §1, §2

IC50 ([1]; Table 3a): 742 nM
IC50 ([1]; Table 3b): 742 nM
IC50 ([2]; Table 3a): 2140 nM
IC50 ([2]; Table 3b): 2140 nM
IC50 ([3]; Table 3a): 6.98 nM
IC50 ([3]; Table 3b): 6.98 nM
IC50 ([4]; Table 3a): < 3.2 nM
IC50 ([4]; Table 3b): < 3.2 nM
IC50 [5]: 655 nM
Compound: CN(C)CCOc1ccc(Nc2ncc3cc(C(=O)N(C)C)n(C45CC(C4)C5)c3n2)cc1F [Compound A93, 7-(bicyclo[1.1.1]pentan-1-yl)-2-((4-(2-(dimethylamino)ethoxy)-3-fluorophenyl)amino)-N,N-dimethyl-7H-pyrrolo[2,3-d]pyrimidine-6-carboxamide]
